Reference: the supplement of paper PMC10307832

Assays:
Experiment in all cases: relative viability (nuclei count vs DMSO), 5 days (fraction); higher = more cells survive
Sulindac + Tozasertib = compound: CC1=C(CC(=O)O)c2cc(F)ccc2/C1=C\c1ccc([S+](C)[O-])cc1 [Sulindac] + Cc1cc(Nc2cc(N3CCN(C)CC3)nc(Sc3ccc(NC(=O)C4CC4)cc3)n2)n[nH]1 [Tozasertib] (partner 0.1 µM)
In short: (§1)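 Relative viability equals treated-well nuclei counts divided by vehicle-well nuclei counts. Counts came from 4× images of lung cancer cell lines grown in 1536-well plates for 5 days after pin-tool dosing on the day after seeding. Dosing used one drug alone or a fixed anchor-drug dose plus five library-drug doses (not always all listed) in √10 steps, and values are medians of duplicate plates.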

Sulindac + Foretinib = compound: CC1=C(CC(=O)O)c2cc(F)ccc2/C1=C\c1ccc([S+](C)[O-])cc1 [Sulindac] + COc1cc2c(Oc3ccc(NC(=O)C4(C(=O)Nc5ccc(F)cc5)CC4)cc3F)ccnc2cc1OCCCN1CCOCC1 [Foretinib] (partner 0.25 µM)
In short: as §1

[1] = compound: O=c1[nH]cc(F)c(=O)[nH]1 [5-Fluorouracil] + COc1cc2c(Oc3ccc(NC(=O)C4(C(=O)Nc5ccc(F)cc5)CC4)cc3F)ccnc2cc1OCCCN1CCOCC1 [Foretinib] (partner 0.25 µM)
In short: as §1

Sulindac + Trametinib = compound: CC1=C(CC(=O)O)c2cc(F)ccc2/C1=C\c1ccc([S+](C)[O-])cc1 [Sulindac] + CC(=O)Nc1cccc(-n2c(=O)n(C3CC3)c(=O)c3c(Nc4ccc(I)cc4F)n(C)c(=O)c(C)c32)c1 [Trametinib] (partner 0.02 µM)
In short: as §1

Row | Cell Line | relative viability (Sulindac + Tozasertib; first compound 0.08 µM) | relative viability (Sulindac + Tozasertib; first compound 0.253 µM) | relative viability (Sulindac + Tozasertib; first compound 0.8 µM) | relative viability (Sulindac + Tozasertib; first compound 2.53 µM) | relative viability (Sulindac + Tozasertib; first compound 8 µM) | relative viability (Sulindac + Foretinib; first compound 0.08 µM) | relative viability (Sulindac + Foretinib; first compound 0.253 µM) | relative viability (Sulindac + Foretinib; first compound 0.8 µM) | relative viability (Sulindac + Foretinib; first compound 2.53 µM) | relative viability (Sulindac + Foretinib; first compound 8 µM) | relative viability ([1]; first compound 0.02 µM) | relative viability ([1]; first compound 0.2 µM) | relative viability ([1]; first compound 0.6325 µM) | relative viability ([1]; first compound 2 µM) | relative viability (Sulindac + Trametinib; first compound 0.08 µM) | relative viability (Sulindac + Trametinib; first compound 0.253 µM) | relative viability (Sulindac + Trametinib; first compound 0.8 µM) | relative viability (Sulindac + Trametinib; first compound 2.53 µM) | relative viability (Sulindac + Trametinib; first compound 8 µM)
1 | NCI-H2342 | 0.447 | 0.492 | 0.513 | 0.397 | 0.583 | 0.86 | 0.952 | 1.02 | 0.948 | 1.07 | 0.961 | 1 | 0.885 | 0.786 | 0.829 | 0.81 | 0.721 | 0.826 | 0.825
2 | NCI-H520 | 0.431 | 0.4 | 0.435 | 0.437 | 0.48 | 0.876 | 0.822 |  | 0.678 | 1.34 | 0.555 | 0.697 | 0.641 | 0.563 | 0.787 | 0.707 | 0.642 | 0.691 | 0.699
3 | LCLC-103H | 0.439 | 0.512 | 0.508 | 0.47 | 0.48 | 0.817 | 0.822 | 0.681 | 0.734 | 0.916 | 0.845 | 0.717 | 0.454 | 0.267 | 0.715 | 0.722 | 0.692 | 0.67 | 0.694
4 | HCC-78 | 0.445 | 0.476 | 0.403 | 0.42 | 0.367 | 0.512 | 0.547 | 0.585 | 0.566 | 0.556 | 0.548 | 0.527 | 0.459 | 0.325 | 0.844 | 0.865 | 0.647 | 0.81 | 0.824
5 | NCI-H1975 | 0.888 | 0.825 | 0.927 | 0.722 | 1.15 | 1.12 | 1.01 | 1.05 | 0.993 | 1.05 | 0.999 | 0.898 | 0.469 | 0.259 | 0.382 | 0.38 | 0.36 | 0.356 | 0.367
